Results from patent publication US11400073B2, “Prevention and treatment of benign prostatic hyperplasia using a selective inhibitor of the production of reactive oxygen species of mitochondrial origin” (priority 2017, dated 2022).

Columns and labels:
[1] = tested on: cell proliferation / apoptosis; details: Ren, 2015; cited from earlier work
HIF-1α = details: Ren, 2015; cited from earlier work
prostatic ROSs = details: Ren, 2015; cited from earlier work
VEGF = details: Ren, 2015; cited from earlier work
PHD3 dioxygenase = assay: RT-qPCR of PHD3 dioxygenase in Pb-PRL mouse prostate; assay type: in vivo; details: Pb-PRL mice, 60 mg/kg/day, 28 days, vs control; FIGS. 12A-12C
Method: (§1) ATT (anethole trithione) was administered to probasin-prolactin (Pb-PRL) mice. This is a transgenic mouse model in which prolactin is specifically overexpressed by the epithelial cells of the prostate, leading to development of benign hyperplasia having characteristics in common with the human pathology: tissue hypertrophy, hyperplasia of the epithelial and stromal cells, and intra-prostatic inflammation (Kindblom et al., 2003; Bernichtein et al., 2015a; Bernichtein et al., 2015b).
(§2) The control group (excipient) was treated with the oil alone.
(§3) The animals were sacrificed at the end of the 28 days of treatment (cervical dislocation), and the prostates were harvested and analyzed by the standard procedures previously described in the literature (Bernichtein et al. Prostate 2015, Bernichtein et al. PLoS. ONE 2015, Bernichtein et al. Cancer Res 2017).
(§4) Oxidative stress will be measured using two approaches: • oxidation/carbonylation of the proteins by blot (Oxyblot™, Merck). • PHD1 and PHD3 dioxygenase expression (RT-qPCR).

[2] = tested on: oxidation/carbonylation of the proteins; assay: Oxidation/carbonylation of the proteins by blot (Oxyblot) in Pb-PRL mouse prostate; assay type: in vivo; details: Pb-PRL mice, 60 mg/kg/day, 28 days, vs control; all lobes; FIGS. 10A-10C
Method: as §1, §2, §3, §4

IL6 = assay: RT-qPCR of IL6 in Pb-PRL mouse prostate; assay type: in vivo; details: Pb-PRL mice, 60 mg/kg/day, 28 days, vs control; dorsal, lateral, ventral prostate; FIGS. 8A-8C
Method: as §1, §2, §3
(§5) The inflammation was measured using two approaches: • CD45 immunolabeling (IHC): making it possible to quantify the number and size of the inflammation sites (image analysis using Calopix software). • RT-qPCR of selected cytokines: IL6 and TNFa.

[3] = tested on: SRD5A1 (5-alpha-reductase); assay: RT-qPCR of SRD5A1 in Pb-PRL mouse prostate; assay type: in vivo; details: Pb-PRL mice, 60 mg/kg/day, 28 days, vs control; dorsal, lateral, ventral prostate; FIGS. 4A-4C
Method: as §1, §2, §3
(§6) This study was performed by RT-qPCR analysis of the expression of elements associated with androgenic signaling and of conventional targets of the androgen receptor in the prostate (AR, PSP 94, Srd5A1, Srd5A2) (Bernichtein et al. Prostate 2015, Sackmann Sala et al. J Pathol 2017).

TNFalpha = assay: RT-qPCR of TNFalpha in Pb-PRL mouse prostate; assay type: in vivo; details: Pb-PRL mice, 60 mg/kg/day, 28 days, vs control; dorsal, lateral, ventral prostate; FIGS. 9A-9C
Method: as §1, §2, §3, §5

PSP94 = assay: RT-qPCR of PSP94 in Pb-PRL mouse prostate; assay type: in vivo; details: Pb-PRL mice, 60 mg/kg/day, 28 days, vs control; dorsal, lateral, ventral prostate; FIGS. 6A-6C
Method: as §1, §2, §3, §6

Pb-PRL mice = assay: Scar fibrosis in Pb-PRL mouse prostate; assay type: in vivo; details: 60 mg/kg/day, 28 days, vs control
Method: ATT (anethole trithione) was administered to probasin-prolactin (Pb-PRL) mice. This is a transgenic mouse model in which prolactin is specifically overexpressed by the epithelial cells of the prostate, leading to development of benign hyperplasia having characteristics in common with the human pathology: tissue hypertrophy, hyperplasia of the epithelial and stromal cells, and intra-prostatic inflammation (Kindblom et al., 2003; Bernichtein et al., 2015a; Bernichtein et al., 2015b). […] The control group (excipient) was treated with the oil alone. […] The animals were sacrificed at the end of the 28 days of treatment (cervical dislocation), and the prostates were harvested and analyzed by the standard procedures previously described in the literature (Bernichtein et al. Prostate 2015, Bernichtein et al. PLoS. ONE 2015, Bernichtein et al. Cancer Res 2017).

HIF1 alpha = assay: RT-qPCR of HIF1 alpha (hypoxia) in Pb-PRL mouse prostate; assay type: in vivo; details: Pb-PRL mice, 60 mg/kg/day, 28 days, vs control; in one or more prostate lobes; FIGS. 13A-13C
Method: as §1, §2, §3
Hypoxia was observed by analysis of HIF1 alpha measured by RT-qPCR at the dorsal, lateral and ventral prostate. The results are presented in FIGS. 13A, 13B and […], respectively.

[4] = tested on: IQ site of the I complex of the mitochondrial respiratory chain; assay: Action on mitochondrial ROS production; assay type: biochemical; details: mostly at the IQ site of the I complex of the mitochondrial respiratory chain; unlike conventional antioxidants
[5] = tested on: SRD5A2 (5-alpha-reductase); assay: RT-qPCR of SRD5A2 in Pb-PRL mouse prostate; assay type: in vivo; details: Pb-PRL mice, 60 mg/kg/day, 28 days, vs control; dorsal, lateral, ventral prostate; FIGS. 5A-5C
Method: as §1, §2, §3, §6

CD45 = CD45 immunolabeling (IHC) of inflammation sites in Pb-PRL mouse prostate; assay type: in vivo; details: Pb-PRL mice, 60 mg/kg/day, 28 days, vs control; half-prostate; FIG. 7
Method: as §1, §2, §3, §5

[6] = tested on: mitochondrial oxidative phosphorylation; assay: Effect on mitochondrial oxidative phosphorylation; assay type: biochemical; details: preliminarily demonstrated
[7] = marketed as SULFARLEM; cited from earlier work
PHD1 dioxygenase = assay: RT-qPCR of PHD1 dioxygenase in Pb-PRL mouse prostate; assay type: in vivo; details: Pb-PRL mice, 60 mg/kg/day, 28 days, vs control; FIGS. 11A-11C
Method: as §1, §2, §3, §4

[8] = in rats; cited from earlier work
[9] = tested on: epithelial proliferation (Ki-67); assay: Epithelial proliferation by IHC Ki-67 in Pb-PRL mouse prostate; assay type: in vivo; details: Pb-PRL mice, 60 mg/kg/day by gavage, 28 days, vs control group; half-prostate; FIG. 2
Method: as §1, §2, §3
Cell proliferation was measured by IHC Ki-67, which makes it possible to calculate the epithelium proliferation index (manual counting or Calopix software).

cytokines = details: experimental T. vaginalis prostatic infection models; inhibition of ROS production (Kim S-S., 2016); cited from earlier work

SMILES: CC1=NN(c2ccccc2)C(=O)C1 [edaravone]
- apoptosis [1]: promotes
- cell proliferation [1]: reduces
- levels of HIF-1α (HIF-1α): decreases
- levels of prostatic ROSs (prostatic ROSs): decreases
- levels of VEGF (VEGF): decreases

SMILES: COc1ccc(-c2cc(=S)ss2)cc1 [ATT, 5-(4-methoxyphenyl)-3H-1,2-dithiole-3-thione]
- expression of the messenger RNAs of PHD3 dioxygenase (PHD3 dioxygenase): statistically significant decrease
- carbonylation of the proteins (Oxyblot) [2]: statistically significant decrease
- expression of IL6 (IL6): decrease
- expression of 5-alpha-reductase 1 (SRD5A1) messenger RNAs [3]: statistically significant decrease
- expression of TNFalpha (TNFalpha): decrease
- expression of PSP94 messenger RNAs (PSP94): statistically significant decrease
- scar fibrosis (Pb-PRL mice): statistically significant increase
- expression of the messenger RNAs of the HIF1 alpha hypoxia marker (HIF1 alpha): statistically significant increase
- action on mitochondrial ROS production [4]: acts directly and selectively
- expression of 5-alpha-reductase 2 (SRD5A2) messenger RNAs [5]: statistically significant decrease
- number of positive leukocyte cell sites for the CD45 marker (CD45): statistically significant decrease
- effect on mitochondrial oxidative phosphorylation [6]: does not affect
- side effects associated to long-term use [7]: no side effect has been reported
- expression of the messenger RNAs of PHD1 dioxygenase (PHD1 dioxygenase): statistically significant decrease
- half-life [8]: 24 min
- epithelial proliferation of the prostate (Ki-67 immunohistochemistry) [9]: statistically significant decrease

SMILES: c1ccc2c(c1)[I+]c1ccccc1-2 [DPI, diphenylene iodonium]
- overexpression of cytokines (cytokines): prevents overexpression
